Measured values from ChEMBL document CHEMBL3351320, “Discovery of novel tetrahydroisoquinoline derivatives as orally active N-type calcium channel blockers with high selectivity for hERG potassium channels” (Bioorg Med Chem, 2014).
Active and inactive are the calls of the source. The calls are words filed in the database; no cut-off is given here.

Legend:
hERG (KCNH2) = hERG (KCNH2) (Homo sapiens, UniProt Q12809); test: Inhibition of human ERG expressed in CHO cells at 10 uM by Rb efflux assay; assay type: cell-based; settings: CHO cells expressing human ERG
[1] = Inhibition of N-type calcium channel in human IMR-32 cells assessed as intracellular calcium concentration by FLIPR; assay type: cell-based
IMR-32 = test: Selectivity ratio of IC50 for human ERG to IC50 for N-type calcium channel in human IMR-32 cells; assay type: cell-based
[2] = biological target: Voltage-gated inwardly rectifying potassium channel KCNH2 (Homo sapiens, UniProt Q12809); test: Inhibition of human ERG expressed in CHO cells by Rb efflux assay
[3] = Aqueous solubility in Japanese Pharmacopoeia at pH 6.8; assay type: physicochemical; settings: aqueous Japanese Pharmacopoeia medium, pH 6.8, pH 6.8
[4] = Aqueous solubility in Japanese Pharmacopoeia at pH 1.2; assay type: physicochemical; settings: aqueous Japanese Pharmacopoeia medium, pH 1.2, pH 1.2
[5] = Inhibition of N-type calcium channel in human IMR-32 cells under holding potential at -90 mV state-biased condition by whole cell patch-clamp electrophysiological method
Rattus norvegicus [6] = test: Antiallodynic activity in Sprague-Dawley rat spinal nerve ligation model of neuropathic pain assessed as maximal reduction in mechanical allodynia at 30 mg/kg, po; assay type: functional, organism-based; parameters: dose 30 mg/kg
[7] = Inhibition of N-type calcium channel in human IMR-32 cells under holding potential at -70 mV inactivated state by whole cell patch-clamp electrophysiological method
Rattus norvegicus [8] = test: Antiallodynic activity in Sprague-Dawley rat spinal nerve ligation model of neuropathic pain assessed as reduction in mechanical allodynia at 3 to 30 mg/kg, po; assay type: functional, organism-based
Cytochrome P450 2C19 = Cytochrome P450 2C19 (Homo sapiens, UniProt P33261); test: Inhibition of human recombinant CYP2C19 after 30 mins
Cytochrome P450 1A2 = biological target: T1, Cytochrome P450 1A2 (Homo sapiens, UniProt P05177); test: Inhibition of human recombinant CYP1A2 after 15 mins
T1 sequence (P05177 whole entry): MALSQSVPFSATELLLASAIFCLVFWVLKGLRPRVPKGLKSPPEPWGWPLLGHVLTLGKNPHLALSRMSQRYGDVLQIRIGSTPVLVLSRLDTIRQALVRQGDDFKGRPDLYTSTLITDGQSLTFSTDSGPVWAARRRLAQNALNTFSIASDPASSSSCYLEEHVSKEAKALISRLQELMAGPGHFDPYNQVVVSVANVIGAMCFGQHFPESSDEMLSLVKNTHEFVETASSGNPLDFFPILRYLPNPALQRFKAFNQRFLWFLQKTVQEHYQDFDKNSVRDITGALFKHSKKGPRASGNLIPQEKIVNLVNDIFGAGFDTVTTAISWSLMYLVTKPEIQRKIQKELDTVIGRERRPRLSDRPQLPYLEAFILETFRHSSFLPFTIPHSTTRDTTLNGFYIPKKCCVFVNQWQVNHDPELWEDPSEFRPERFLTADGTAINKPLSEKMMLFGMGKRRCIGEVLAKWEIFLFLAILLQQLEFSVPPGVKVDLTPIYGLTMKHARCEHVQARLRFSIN

CYP3A4 = CYP3A4 (Homo sapiens, UniProt P08684); test: Inhibition of CYP3A4 in human liver microsomes assessed as residual activity assessed as residual activity using midazolam as substrate preincubated for 30 mins by LC/MS/MS analysis; settings: probe midazolam
Cytochrome P450 2C9 = Cytochrome P450 2C9 (Homo sapiens, UniProt P11712); test: Inhibition of human recombinant CYP2C9 after 45 mins
Cytochrome P450 2D6 = Cytochrome P450 2D6 (Homo sapiens, UniProt P10635); test: Inhibition of human recombinant CYP2D6 after 30 mins
Cytochrome P450 2D6, sequence (P10635 whole entry): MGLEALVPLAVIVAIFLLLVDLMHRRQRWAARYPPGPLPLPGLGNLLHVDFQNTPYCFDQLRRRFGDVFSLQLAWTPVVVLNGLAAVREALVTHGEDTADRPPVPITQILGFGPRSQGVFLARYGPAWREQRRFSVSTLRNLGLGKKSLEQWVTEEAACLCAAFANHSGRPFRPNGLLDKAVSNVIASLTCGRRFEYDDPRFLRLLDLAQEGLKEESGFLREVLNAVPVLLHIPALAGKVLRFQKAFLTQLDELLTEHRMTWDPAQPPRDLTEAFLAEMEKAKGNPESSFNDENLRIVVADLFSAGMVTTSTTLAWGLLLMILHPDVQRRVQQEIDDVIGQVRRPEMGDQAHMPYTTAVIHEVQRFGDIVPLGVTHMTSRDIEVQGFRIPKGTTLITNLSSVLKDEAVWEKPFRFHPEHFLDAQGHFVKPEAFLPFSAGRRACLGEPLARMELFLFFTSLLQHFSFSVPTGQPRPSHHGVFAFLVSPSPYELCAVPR

Voltage-gated inwardly rectifying potassium channel KCNH2, sequence (Q12809 whole entry): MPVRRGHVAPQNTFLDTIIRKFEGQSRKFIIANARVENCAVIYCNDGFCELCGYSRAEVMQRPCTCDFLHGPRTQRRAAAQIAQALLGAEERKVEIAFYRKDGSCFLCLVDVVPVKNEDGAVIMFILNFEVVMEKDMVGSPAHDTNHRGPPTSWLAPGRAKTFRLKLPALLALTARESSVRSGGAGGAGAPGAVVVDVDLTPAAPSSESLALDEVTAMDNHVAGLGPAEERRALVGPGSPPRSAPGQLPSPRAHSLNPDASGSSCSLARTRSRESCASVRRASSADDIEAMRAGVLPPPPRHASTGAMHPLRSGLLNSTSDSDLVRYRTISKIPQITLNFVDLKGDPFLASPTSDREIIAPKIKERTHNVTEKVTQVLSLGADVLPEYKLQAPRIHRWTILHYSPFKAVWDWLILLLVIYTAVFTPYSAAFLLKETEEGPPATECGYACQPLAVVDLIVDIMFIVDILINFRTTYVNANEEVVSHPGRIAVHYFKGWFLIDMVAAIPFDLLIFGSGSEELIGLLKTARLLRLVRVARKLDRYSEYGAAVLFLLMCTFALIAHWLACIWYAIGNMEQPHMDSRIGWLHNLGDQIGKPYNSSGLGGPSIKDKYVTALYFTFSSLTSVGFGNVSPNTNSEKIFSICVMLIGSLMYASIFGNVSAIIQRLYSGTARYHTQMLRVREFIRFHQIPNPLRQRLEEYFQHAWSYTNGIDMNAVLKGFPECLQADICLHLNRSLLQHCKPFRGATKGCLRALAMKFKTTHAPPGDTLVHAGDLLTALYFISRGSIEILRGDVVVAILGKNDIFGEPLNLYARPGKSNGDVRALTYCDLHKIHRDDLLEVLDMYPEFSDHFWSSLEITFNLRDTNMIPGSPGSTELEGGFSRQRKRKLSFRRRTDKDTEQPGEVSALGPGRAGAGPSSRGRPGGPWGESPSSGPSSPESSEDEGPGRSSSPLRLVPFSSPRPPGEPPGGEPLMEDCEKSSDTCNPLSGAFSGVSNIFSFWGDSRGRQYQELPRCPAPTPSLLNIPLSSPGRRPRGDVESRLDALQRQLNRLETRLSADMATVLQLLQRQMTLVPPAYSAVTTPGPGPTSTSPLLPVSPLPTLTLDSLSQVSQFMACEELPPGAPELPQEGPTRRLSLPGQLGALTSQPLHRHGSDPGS
hERG (KCNH2), sequence (Q12809 whole entry): as above
CYP3A4, sequence (P08684 whole entry): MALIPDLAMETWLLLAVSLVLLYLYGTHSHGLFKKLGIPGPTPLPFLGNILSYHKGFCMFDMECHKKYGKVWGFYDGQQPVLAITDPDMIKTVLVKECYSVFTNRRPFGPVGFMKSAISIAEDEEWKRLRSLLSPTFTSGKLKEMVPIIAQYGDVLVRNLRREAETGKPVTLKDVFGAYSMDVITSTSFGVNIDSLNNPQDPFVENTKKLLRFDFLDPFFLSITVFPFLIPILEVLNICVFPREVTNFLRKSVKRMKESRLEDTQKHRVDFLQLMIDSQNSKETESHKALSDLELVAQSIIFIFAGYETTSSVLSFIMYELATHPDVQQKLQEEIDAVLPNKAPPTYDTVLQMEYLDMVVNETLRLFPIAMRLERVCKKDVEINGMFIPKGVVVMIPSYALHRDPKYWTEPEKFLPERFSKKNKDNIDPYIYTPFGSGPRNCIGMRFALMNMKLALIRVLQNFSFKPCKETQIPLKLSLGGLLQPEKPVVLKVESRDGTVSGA
Cytochrome P450 2C19, sequence (P33261 whole entry): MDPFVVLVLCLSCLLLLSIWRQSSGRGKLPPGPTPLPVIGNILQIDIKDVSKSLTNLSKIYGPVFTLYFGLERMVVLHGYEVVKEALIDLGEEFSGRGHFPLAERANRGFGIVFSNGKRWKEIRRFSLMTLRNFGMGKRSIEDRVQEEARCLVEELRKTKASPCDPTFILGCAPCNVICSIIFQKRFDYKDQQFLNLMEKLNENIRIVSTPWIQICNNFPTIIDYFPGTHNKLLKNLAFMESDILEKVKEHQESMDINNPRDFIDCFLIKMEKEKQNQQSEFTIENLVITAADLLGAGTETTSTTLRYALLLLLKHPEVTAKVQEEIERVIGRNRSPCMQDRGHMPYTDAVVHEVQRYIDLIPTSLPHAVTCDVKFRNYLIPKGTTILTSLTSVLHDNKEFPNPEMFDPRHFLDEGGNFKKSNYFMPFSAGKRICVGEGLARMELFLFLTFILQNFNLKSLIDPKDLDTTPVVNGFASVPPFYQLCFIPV
Cytochrome P450 2C9, sequence (P11712 whole entry): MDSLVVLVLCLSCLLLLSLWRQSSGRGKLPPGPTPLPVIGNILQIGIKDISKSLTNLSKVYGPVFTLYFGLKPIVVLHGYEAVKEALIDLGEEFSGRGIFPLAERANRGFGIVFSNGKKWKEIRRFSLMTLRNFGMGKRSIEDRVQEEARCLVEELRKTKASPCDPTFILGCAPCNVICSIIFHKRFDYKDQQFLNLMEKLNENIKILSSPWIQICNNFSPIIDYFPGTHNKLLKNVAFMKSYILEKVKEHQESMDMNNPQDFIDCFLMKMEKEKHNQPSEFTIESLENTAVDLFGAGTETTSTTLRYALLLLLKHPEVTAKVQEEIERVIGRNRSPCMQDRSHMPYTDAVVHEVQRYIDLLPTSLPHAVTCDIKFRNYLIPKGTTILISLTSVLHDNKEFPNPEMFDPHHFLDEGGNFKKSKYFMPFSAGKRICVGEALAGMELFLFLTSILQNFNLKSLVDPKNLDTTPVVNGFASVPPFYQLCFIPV

O=C(CNCCc1ccccc1)N1CCc2ccccc2C1C1CCCCC1 (stereo unspecified)
inhibition at 10 µM (hERG (KCNH2)): 57.8%
IC50 [1]: 1300 nM

O=C(CNCC1(O)CCCC1)N1CCc2ccccc2C1C1CCCCC1 (stereo unspecified)
Ratio IC50 (IMR-32): 28.1
IC50 [1]: 2800 nM
IC50 [2]: 78600 nM

COc1c(OC(C)(C)C)cc(CN2CC(=O)N(CCCCCC(c3ccc(F)cc3)c3ccc(F)cc3)CC2=O)cc1OC(C)(C)C
solubility [3]: < 1 µM
solubility [4]: < 1 µM
IC50 [1]: 430 nM
IC50 [2]: > 100000 nM

O=C(CNCCc1ccccc1O)N1CCc2ccccc2C1C1CCCCC1 (stereo unspecified)
inhibition at 10 µM (hERG (KCNH2)): 54.4%
IC50 [1]: 3000 nM

O=C(CNCCc1c(Cl)cccc1Cl)N1CCc2ccccc2C1C1CCCCC1 (stereo unspecified)
IC50 [1]: 2400 nM

O=C(CNCC1(O)CCCCCC1)N1CCc2ccccc2C1C1CCCCC1 (stereo unspecified)
Ratio IC50 (IMR-32): 19.6
IC50 [1]: 2600 nM
IC50 [2]: 50100 nM

O=C(CNCCC1(O)CCCCC1)N1CCc2ccccc2C1C1CCCCC1 (stereo unspecified)
IC50 [1]: 1700 nM

O=C(CNCC1(O)CCCCC1)N1CCc2ccccc2[C@H]1C1CCCCC1
IC50 [1]: 1500 nM

O=C(CNCC1(O)CCCCC1)N1CCc2ccccc2[C@@H]1C1CCCCC1
IC50 [5]: 12700 nM
inhibition (Rattus norvegicus [6]): Active
IC50 [1]: 1000 nM
IC50 [7]: 1700 nM
inhibition (Rattus norvegicus [8]): Active

COC(=O)c1ccc(CCNCC(=O)N2CCc3ccccc3C2C2CCCCC2)cc1 (stereo unspecified)
inhibition at 10 µM (hERG (KCNH2)): 71.7%
IC50 [1]: 2300 nM

O=C(CNCC1CCCCC1)N1CCc2ccccc2C1C1CCCCC1 (stereo unspecified)
Ratio IC50 (IMR-32): 20
IC50 [1]: 1300 nM
IC50 [2]: 26000 nM

COc1cc(CN2CCN(CCCCCC(c3ccc(F)cc3)c3ccc(F)cc3)CC2)cc(OC)c1OC
solubility [3]: < 1 µM
solubility [4]: > 100 µM
IC50 [1]: 1100 nM
IC50 [2]: 3400 nM

COc1ccccc1CCNCC(=O)N1CCc2ccccc2C1C1CCCCC1 (stereo unspecified)
IC50 (Cytochrome P450 2C19): 3000 nM
solubility [3]: > 100 µM
IC50 (Cytochrome P450 1A2): 26000 nM
activity at 30 min (CYP3A4): 53%
solubility [4]: > 100 µM
IC50 [1]: 600 nM
IC50 (Cytochrome P450 2C9): 4800 nM
IC50 (Cytochrome P450 2D6): 370 nM

O=C(O)c1ccc(CCNCC(=O)N2CCc3ccccc3C2C2CCCCC2)cc1 (stereo unspecified)
inhibition at 10 µM (hERG (KCNH2)): 9%
IC50 [1]: > 10000 nM
